Results reported in patent US10206400B2, “Insecticidal compounds based on isoxazoline derivatives” (Syngenta Crop Protection LLC, priority 2009, dated 2019).

Legend:
Type in all cases: in vivo
[1] = test system: Spodoptera littoralis; assay: Spodoptera littoralis (Egyptian cotton leafworm) leaf disc spray test; conditions: foliar, 72 h, 200 ppm spray on cotton leaf discs, L1 larvae, mortality, feeding behavior, growth regulation 3 days after treatment
Source text: Cotton leaf discs were placed on agar in a 24-well microtiter plate and sprayed with test solutions at an application rate of 200 ppm. After drying, the leaf discs were infested with 5 L1 larvae. The samples were checked for mortality, feeding behavior, and growth regulation 3 days after treatment (DAT).

[2] = test system: Heliothis virescens; assay: Heliothis virescens (tobacco budworm) egg/artificial diet test; conditions: 96 h, 200 ppm (concentration in well 18 ppm), eggs 0-24 h old on artificial diet, 4 days, egg mortality, larval mortality, growth regulation
Experimental: Eggs (0-24 h old) were placed in 24-well microtiter plate on artificial diet and treated with test solutions at an application rate of 200 ppm (concentration in well 18 ppm) by pipetting. After an incubation period of 4 days, samples were checked for egg mortality, larval mortality, and growth regulation.

[3] = test system: Plutella xylostella; assay: Plutella xylostella (diamond back moth) artificial diet test; conditions: 144 h, 200 ppm (concentration in well 18 ppm), L2 larvae, 6 days, larval mortality, growth regulation
Experimental: (§1) 24-well microtiter plate (MTP) with artificial diet was treated with test solutions at an application rate of 200 ppm (concentration in well 18 ppm) by pipetting. After drying, the MTP's were infested with L2 larvae (7-12 per well). After an incubation period of 6 days, samples were checked for larval mortality and growth regulation.

[4] = test system: Diabrotica balteata; assay: Diabrotica balteata (corn root worm) artificial diet test; conditions: 120 h, 200 ppm (concentration in well 18 ppm), L2 larvae, 5 days, larval mortality, growth regulation
Experimental: as §1, with “A 24-well” for “24-well”, “(6-10” for “(7-12”, “5” for “6”

[5] = test system: Myzus persicae; assay: Myzus persicae (green peach aphid), systemic test; conditions: 144 h, roots of infested pea seedlings in test solution, 6 days, mortality, special effects on the plant
Source text: Myzus persicae (Green peach aphid), systemic test: Roots of pea seedlings, infested with an aphid population of mixed ages, are placed directly in the test solutions at an application rate of 12.5 ppm. 6 days after introduction, samples are checked for mortality and special effects on the plant. The following compounds gave at least 80% control of Myzus persicae: A3, B2, B3, B5, B6, B7, B8, B11, B12, C1, C2, C3,C4, C5, C6, C7, D1, E1, E2, G1, G3, G5, G6, H1, H5, H6, H9, H10, H11, H12, H13, H14, H18, H19, H20, H24, H25, and H26.

[6] = test system: Thrips tabaci; assay: Thrips tabaci (onion thrips) leaf disc spray test; conditions: foliar, 168 h, 200 ppm spray on sunflower leaf discs, mixed ages, 7 days, mortality
Experimental: [The procedure below names another target; the source lists this target under the same test.] Sunflower leaf discs were placed on agar in a 24-well microtiter plate and sprayed with test solutions at an application rate of 200 ppm. After drying, the leaf discs were infested with an […] population of mixed ages. After an incubation period of 7 days, samples were checked for mortality.

[7] = test system: Tetranychus urticae; assay: Tetranychus urticae (two-spotted spider mite) leaf disc spray test; conditions: foliar, 192 h, 200 ppm spray on bean leaf discs, mixed ages, 8 days, egg, larval and adult mortality
Source text: Bean leaf discs on agar in 24-well microtiter plates were sprayed with test solutions at an application rate of 200 ppm. After drying, the leaf discs are infested with mite populations of mixed ages. 8 days later, discs are checked for egg mortality, larval mortality, and adult mortality.

CCN1CC(NC(=O)c2ccc(C3=NOC(c4cc(Cl)cc(Cl)c4)(C(F)(F)F)C3)cc2C)CO1 (stereo not shown) [Compound A3, 4-[5-(3,5-Dichloro-phenyl)-5-trifluoromethyl-4,5-dihydroisoxazol-3-yl]-N-(2-ethyl-isoxazolidin-4-yl)-2-methyl-benzamide]
≥ 80%: pest or weed control at 200 ppm [1] | pest or weed control at 200 ppm [2] | pest or weed control at 200 ppm [3] | pest or weed control at 200 ppm [4] | pest or weed control at 12.5 ppm [5] | pest or weed control at 200 ppm [6] | pest or weed control at 200 ppm [7]

Cc1cc(C2=NOC(c3cc(Cl)cc(Cl)c3)(C(F)(F)F)C2)ccc1C(=O)N[C@@H]1CON(C)C1=O (stereo partly drawn) [Compound B2, 4-[5-(3,5-Dichloro-phenyl)-5-trifluoromethyl-4,5-dihydro-isoxazol-3-yl]-2-methyl-N-((R)-2-methyl-3-oxo-isoxazolidin-4-yl)-benzamide]
≥ 80%: pest or weed control at 200 ppm [1] | pest or weed control at 200 ppm [2] | pest or weed control at 200 ppm [3] | pest or weed control at 200 ppm [4] | pest or weed control at 12.5 ppm [5] | pest or weed control at 200 ppm [6] | pest or weed control at 200 ppm [7]

CCCCN1OC[C@@H](NC(=O)c2ccc(C3=NOC(c4cc(Cl)cc(Cl)c4)(C(F)(F)F)C3)cc2C)C1=O (stereo partly drawn) [Compound B8, 4-[5-(3,5-Dichloro-phenyl)-5-trifluoromethyl-4,5-dihydro-isoxazol-3-yl]-2-methyl-N-((R)-2-butyl-3-oxo-isoxazolidin-4-yl)-benzamide]
≥ 80%: pest or weed control at 200 ppm [1] | pest or weed control at 200 ppm [2] | pest or weed control at 200 ppm [3] | pest or weed control at 200 ppm [4] | pest or weed control at 12.5 ppm [5] | pest or weed control at 200 ppm [6] | pest or weed control at 200 ppm [7]

CCN1OC[C@H](NC(=O)c2ccc(C3=NO[C@@](c4cc(Cl)cc(Cl)c4)(C(F)(F)F)C3)cc2C)C1=O [Compound G3, 4-[5-(3,5-dichloro-phenyl)-5-(S)-trifluoromethyl-4,5-dihydro-isoxazol-3-yl]-2-methyl-N—((S)-2-ethyl-3-oxo-isoxazolidin-4-yl)-benzamide]
≥ 80%: pest or weed control at 200 ppm [1] | pest or weed control at 200 ppm [2] | pest or weed control at 200 ppm [3] | pest or weed control at 200 ppm [4] | pest or weed control at 12.5 ppm [5] | pest or weed control at 200 ppm [6] | pest or weed control at 200 ppm [7]

CCN1OC[C@@H](NC(=O)c2ccc(C3=NOC(c4cc(F)cc(Cl)c4)(C(F)(F)F)C3)cc2C)C1=O (stereo partly drawn) [Compound C5, 4-[5-(3-chloro-5-fluoro-phenyl)-5-trifluoromethyl-4,5-dihydro-isoxazol-3-yl]-2-methyl-N-((R)-2-ethyl-3-oxo-isoxazolidin-4-yl)-benzamide]
≥ 80%: pest or weed control at 200 ppm [1] | pest or weed control at 200 ppm [2] | pest or weed control at 200 ppm [3] | pest or weed control at 200 ppm [4] | pest or weed control at 12.5 ppm [5] | pest or weed control at 200 ppm [6] | pest or weed control at 200 ppm [7]

CCN1OC[C@@H](NC(=O)c2ccc(C3=NOC(c4cc(Cl)c(F)c(Cl)c4)(C(F)(F)F)C3)cc2C)C1=O (stereo partly drawn) [Compound C3, 4-[5-(3,5-Dichloro-4-fluoro-phenyl)-5-trifluoromethyl-4,5-dihydro-isoxazol-3-yl]-2-methyl-N-((R)-2-ethyl-3-oxo-isoxazolidin-4-yl)-benzamide]
≥ 80%: pest or weed control at 200 ppm [1] | pest or weed control at 200 ppm [2] | pest or weed control at 200 ppm [3] | pest or weed control at 200 ppm [4] | pest or weed control at 12.5 ppm [5] | pest or weed control at 200 ppm [6] | pest or weed control at 200 ppm [7]

Cc1cc(C2=NOC(c3cc(Cl)cc(Cl)c3)(C(F)(F)F)C2)ccc1C(=O)N[C@@H]1CON(C2COC2)C1=O (stereo partly drawn) [Compound B12, 4-[5-(3,5-Dichloro-phenyl)-5-trifluoromethyl-4,5-dihydro-isoxazol-3-yl]-2-methyl-N-((R)-2-(oxetan-3-yl)-3-oxo-isoxazolidin-4-yl)-benzamide]
≥ 80%: pest or weed control at 200 ppm [1] | pest or weed control at 200 ppm [2] | pest or weed control at 200 ppm [3] | pest or weed control at 200 ppm [4] | pest or weed control at 12.5 ppm [5] | pest or weed control at 200 ppm [6] | pest or weed control at 200 ppm [7]

Cc1cc(C2=NO[C@@](c3cc(Cl)cc(Cl)c3)(C(F)(F)F)C2)ccc1C(=O)N[C@@H]1CON(CC(F)F)C1=O [Compound G5, 4-[5-(3,5-Dichloro-phenyl)-5-(S)-trifluoromethyl-4,5-dihydro-isoxazol-3-yl]-2-methyl-N—((R)-2-(2,2-difluoroethyl)-3-oxo-isoxazolidin-4-yl)-benzamide]
≥ 80%: pest or weed control at 200 ppm [1] | pest or weed control at 200 ppm [2] | pest or weed control at 200 ppm [3] | pest or weed control at 200 ppm [4] | pest or weed control at 12.5 ppm [5] | pest or weed control at 200 ppm [6] | pest or weed control at 200 ppm [7]

CCN1OC[C@@H](NC(=O)c2ccc(C3=NOC(c4cc(Cl)c(Br)c(Cl)c4)(C(F)(F)F)C3)cc2C)C1=O (stereo partly drawn) [Compound C2, 4-[5-(3,5-Dichloro-4-bromo-phenyl)-5-trifluoromethyl-4,5-dihydro-isoxazol-3-yl]-2-methyl-N-((R)-2-ethyl-3-oxo-isoxazolidin-4-yl)-benzamide]
≥ 80%: pest or weed control at 200 ppm [1] | pest or weed control at 200 ppm [2] | pest or weed control at 200 ppm [3] | pest or weed control at 200 ppm [4] | pest or weed control at 12.5 ppm [5] | pest or weed control at 200 ppm [6] | pest or weed control at 200 ppm [7]

Cc1cc(C2=NOC(c3cc(Cl)cc(Cl)c3)(C(F)(F)F)C2)ccc1C(=O)N[C@H]1CON(C)C1=O (stereo partly drawn) [Compound E1, 4-[5-(3,5-Dichloro-phenyl)-5-trifluoromethyl-4,5-dihydro-isoxazol-3-yl]-2-methyl-N-((S)-2-methyl-3-oxo-isoxazolidin-4-yl)-benzamide]
≥ 80%: pest or weed control at 200 ppm [1] | pest or weed control at 200 ppm [2] | pest or weed control at 200 ppm [3] | pest or weed control at 200 ppm [4] | pest or weed control at 12.5 ppm [5] | pest or weed control at 200 ppm [6] | pest or weed control at 200 ppm [7]

CCN1OC[C@@H](NC(=O)c2ccc(C3=NOC(c4cc(Cl)c(Cl)c(Cl)c4)(C(F)(F)F)C3)cc2C)C1=O (stereo partly drawn) [Compound C1, 4-[5-(3,4,5-Trichloro-phenyl)-5-trifluoromethyl-4,5-dihydro-isoxazol-3-yl]-2-methyl-N-((R)-2-ethyl-3-oxo-isoxazolidin-4-yl)-benzamide]
≥ 80%: pest or weed control at 200 ppm [1] | pest or weed control at 200 ppm [2] | pest or weed control at 200 ppm [3] | pest or weed control at 200 ppm [4] | pest or weed control at 12.5 ppm [5] | pest or weed control at 200 ppm [6] | pest or weed control at 200 ppm [7]

Cc1cc(C2=NOC(c3cc(Cl)cc(Cl)c3)(C(F)(F)F)C2)ncc1C(=O)N[C@@H]1CON(CC(F)(F)F)C1=O (stereo partly drawn) [Compound C6, 6-[5-(3,5-Dichloro-phenyl)-5-trifluoromethyl-4,5-dihydro-isoxazol-3-yl]-4-methyl-N— [(R)-3-oxo-2-(2,2,2-trifluoro-ethyl)-isoxazolidin-4-yl]-nicotinamide]
≥ 80%: pest or weed control at 200 ppm [1] | pest or weed control at 200 ppm [2] | pest or weed control at 200 ppm [3] | pest or weed control at 200 ppm [4] | pest or weed control at 12.5 ppm [5] | pest or weed control at 200 ppm [6] | pest or weed control at 200 ppm [7]

COCCN1OC[C@@H](NC(=O)c2ccc(C3=NOC(c4cc(Cl)cc(Cl)c4)(C(F)(F)F)C3)cc2C)C1=O (stereo partly drawn) [Compound B7, 4-[5-(3,5-Dichloro-phenyl)-5-trifluoromethyl-4,5-dihydro-isoxazol-3-yl]-2-methyl-N-((R)-2-(2-methoxyethyl)-3-oxo-isoxazolidin-4-yl)-benzamide]
≥ 80%: pest or weed control at 200 ppm [1] | pest or weed control at 200 ppm [2] | pest or weed control at 200 ppm [3] | pest or weed control at 200 ppm [4] | pest or weed control at 12.5 ppm [5] | pest or weed control at 200 ppm [6] | pest or weed control at 200 ppm [7]
